Assay results as given in paper PMC7719495 (BioMed Research International, 2020).

Experiments:
[1] = HPLC analysis of the content of AMPB in mice plasma and brain tissue; format: in vivo, KM mice; settings: compared with AMPB group; AMPB 3 mg/kg iv q.d.; POS 90 mg/kg gavage, zosuquidar 20 mg/kg, Ko143 10 mg/kg, elacridar 2.5 mg/kg iv, b.i.d. 4 days; 4 h after last administration
Method: POS, zosuquidar, Ko143, and elacridar were administered for 4 consecutive days (b.i.d., 9 a.m. and 9 p.m).
4 h after the last administration, the mouse eyeball was taken for blood sample acquisition, in a commercial 1.5 mL centrifuge tube containing the anticoagulant EDTA, with sterilized ophthalmic bending forceps. Samples were centrifuged at 3000 rpm for 10 min. And the bottom plasma was gently extracted and separated with micropipeter. Then, plasma proteins were precipitated by adding 300 μL methanol to 100 μL plasma, followed by vortex for 10 s and let it stand for 5 min. After that, the samples were centrifuged at 4°C, 13000 rpm, for 10 min. Finally, the plasma test solution was fulfilled by filtering it through the 0.22 μm microporous membrane.
After the completion of blood, the mice brain was quickly removed. Moderate brain tissue samples were mixed with physiological saline for homogenate preparation. And proteins were precipitated by adding 300 μL methanol to 100 μL homogenate, followed by vortex for 10 s, and let it stand for 5 min, and then centrifuged at 4°C, 13000 rpm, for 10 min. Finally, the brain test solution was fulfilled by filtering it through the 0.22 μm microporous membrane. […] The analytical column was a Diamonsil (2) C18 column (250 mm ×4.6 mm, 5 μm) maintained at 30°C. The mobile phase consisted of 10 mM ammonium acetate aqueous solution (PH4) and acetonitrile, with the flow rate of 1.0 mL/min and the injection volume of 50 μL.

[2] = system: mice brain capillary endothelial cells (BCECs); assay: AMPB uptake by BCECs, HPLC; format: cell-based; settings: 30, 60, 120, 180 min, compared with AMPB group
Method: The mice brain capillary endothelial cells (BCECs, cat. no. BNCC35187) were purchased from Beijing Beina Chuanglian Biotechnology Research Institute (Beijing, China). BCECs were resuscitated in a constant temperature water bath at 37°C and then inoculated in a petri dish. The cells were cultured with the 1640 medium containing 10% FBS in a 5% CO2 cell incubator at 37°C. The culture medium was changed every other day, and the cells were digested with 0.25% trypsin when they converged and proliferated to form a full layer at the bottom of the dish. 1 mL cell suspensions were seeded in 12-well plates at a density of 1 × 10^5 cells/mL per well. The drug was administered after the cells being completely adherent to the wall. 2.16 μM AMBP solution was prepared with the 1640 medium and then was used to prepare POS solution at concentrations of 2.85 μM, 5.71 μM, and 11.42 μM, 5 μM zosuquidar, 5 μM Ko143, 1 mM elacridar, and 40 g/L albumin solution, respectively.
The cells were randomly divided into the following 8 groups: 2.16 μM AMBP, 2.16 μM AMBP+POS (2.85 μM, 5.71 μM, and 11.42 μM), 2.16 μM AMBP+5 μM zosuquidar, 2.16 μM AMBP+5 μM Ko143, 2.16 μM AMBP+1 mM elacridar, and 2.16 μM AMBP+40 g/L albumin. Three wells were set at each time point in each group and cultured at 37°C. Cell samples were collected at 30 min, 60 min, 120 min, and 180 min after drug administration, respectively. BCECs were eluted with Hanks' balanced salt solution for 3 times and then incubated with 1% Triton X-100 (200 μL/per well) at 4°C for 12 h to lyse the cells.

plasma protein [3] = system: plasma protein; design: method as in earlier work; settings: cited from earlier work
plasma protein [4] = assay: Balanced (equilibrium) dialysis of free AMPB in in vitro plasma; format: in vitro ADME, mouse; settings: 37°C, 6 h
Method: (§1) The equilibrium dialysis experiments were performed by the Thermo Fisher Scientific rapid equilibrium dialysis (RED) device. […] The prepared sample solutions were added into the holes of RED plate, respectively, with a 300 μL sample loading. In the corresponding buffer holes, 550 μL, 1% Triton X-100 solution was added. After the sample loading was completed, the sample was put into a 37°C constant temperature oscillator, and the dialysis was balanced at 100 rpm for 6 h. […] And then, the protein or drug-protein complexes with a molecular weight ≥ […] were retained by adding 1 mL of drug-containing plasma mixture into the Centrifree® overfiltration unit and centrifuging it at 13000 rpm and 4°C for 20 min.

plasma protein [5] = assay: Ultrafiltration analysis of free AMPB in in vitro plasma; format: in vitro ADME; settings: 37°C, 2 h, p < 0.0001 vs AMPB group
Method: as §1

Cryptococcus neoformans [6] = assay: H&E staining of brain pathology in mice with cryptococcal meningitis; format: in vivo; settings: AMPB 3 mg/kg, POS 180 mg/kg, 14 days, compared with model group
Method: Except the control group, the mice in the other four groups were all injected with the lateral ventricular cryptococcus suspension at the dose of 1 × 10^8 CFU/mL, 5 μL for each mouse [19]. And the control group was injected with the same volume of normal saline. […] After 5 days, mice in each group were administered with the corresponding drugs mentioned above, continuously for 14 days. […] The mice were then anesthetized with ether for 24 h after the last administration. Next, the brain tissue was promptly removed for H&E staining and colonization detection of Cryptococcus neoformans. The mouse brain tissue was fixed with 4% paraformaldehyde at 25°C for 24 h, followed by washing with running water for 0.5 h [20, 21]. The brain was then dehydrated with 75%, 85%, 95%, and anhydrous ethanol for 6 h, 10 h, 4 h, and 2 h, respectively. After permeabilization with xylene I for 20 min and xylene II for 15 min, the brain was embedded in paraffin for 3 h and then cut into 5 μm slices using a microtome (RM2235, Leica Biosystems, Wetzlar, Germany) and roasted at 60°C. After dewaxing with xylene, the slices were stained with hematoxylin and eosin. Random photographs of three fields were acquired using a CX22 light microscope at ×400 magnification (Olympus Corporation, Tokyo, Japan).

Cryptococcus neoformans [7] = assay: Counting of Cryptococcus neoformans colonies in the brain tissue; format: in vivo; settings: cryptococcal meningitis mice; AMPB 3 mg/kg, POS 180 mg/kg, 14 days; p < 0.01 compared with model group
Method: Except the control group, the mice in the other four groups were all injected with the lateral ventricular cryptococcus suspension at the dose of 1 × 10^8 CFU/mL, 5 μL for each mouse [19]. And the control group was injected with the same volume of normal saline. […] After 5 days, mice in each group were administered with the corresponding drugs mentioned above, continuously for 14 days. And the time and frequency of administration are described above. The mice were then anesthetized with ether for 24 h after the last administration. Next, the brain tissue was promptly removed for H&E staining and colonization detection of Cryptococcus neoformans. The brain tissue was homogenized with normal saline at a ratio of 1 : 1 (g : v). And then, 100 μL homogenate suspension was gradient diluted to concentrations of 1, 0.1, 0.01, and 0.001 g/mL. At each concentration, 10 μL of brain tissue suspension was uniformly applied to yeast extract peptone dextrose medium and cultured in a 30°C incubator for 48 h [22]. Then, the colony count of cryptococcus neoformans was performed.

[8] = 5 μM zosuquidar, 5 μM Ko143 or 1 mM elacridar + 2.16 μM AMPB

COc1ccc2c3c([nH]c2c1)[C@H](CC(C)C)N1C(=O)[C@H](CCC(=O)OC(C)(C)C)NC(=O)[C@@H]1C3 [Ko143]
AMPB brain tissue/plasma drug ratio [1]: no effect
brain tissue concentration of AMPB [1]: no effect
plasma drug concentration of AMPB [1]: no effect
effect on AMPB uptake by BCECs [2, 8]: no significant effect

C[C@@H]1[C@H](O)[C@@H](C)/C=C/C=C/C=C/C=C/C=C/C=C/C=C/[C@H](O[C@@H]2O[C@H](C)[C@@H](O)[C@H](N)[C@@H]2O)C[C@@H]2O[C@](O)(C[C@@H](O)C[C@@H](O)[C@H](O)CC[C@@H](O)C[C@@H](O)CC(=O)O[C@H]1C)C[C@H](O)[C@H]2C(=O)O [AMPB, amphotericin B]
plasma protein binding rate (plasma protein [3]): 90%

CC[C@@H]([C@H](C)O)n1ncn(-c2ccc(N3CCN(c4ccc(OC[C@@H]5CO[C@@](Cn6cncn6)(c6ccc(F)cc6F)C5)cc4)CC3)cc2)c1=O [POS, posaconazole]
effect on plasma free AMPB (balanced dialysis) (plasma protein [4]; POS 4 μg/mL + AMPB 0.5 μg/mL in mouse plasma, p < 0.05 vs AMPB group): prominently elevate
effect on plasma free AMPB (balanced dialysis) (plasma protein [4]; POS 8 μg/mL + AMPB 0.5 μg/mL in mouse plasma, p < 0.01 vs AMPB group): prominently elevate
effect on plasma concentration of free AMPB (ultrafiltration) (plasma protein [5]; POS 4 μg/mL + AMPB 2.0 μg/mL in plasma): potentially increase
effect on plasma concentration of free AMPB (ultrafiltration) (plasma protein [5]; POS 8 μg/mL + AMPB 2.0 μg/mL in plasma): potentially increase
effect on AMPB uptake by BCECs ([2]; POS 2.85, 5.71 and 11.42 μM + 2.16 μM AMPB): no significant effect
cortical pathological injuries (inflammatory cell infiltration, bleeding), H&E staining (Cryptococcus neoformans [6]): improve the above pathological injuries
number of cryptococcus neoformans in the brain (colony culture) (Cryptococcus neoformans [7]): evidently inhibit
plasma protein binding rate (plasma protein [3]): 98%

COc1cc2c(cc1OC)CN(CCc1ccc(NC(=O)c3cccc4c(=O)c5cccc(OC)c5[nH]c34)cc1)CC2 [elacridar]
effect on AMPB uptake by BCECs [2, 8]: no significant effect

O[C@@H](COc1cccc2ncccc12)CN1CCN([C@@H]2c3ccccc3[C@@H]3[C@H](c4ccccc42)C3(F)F)CC1 [zosuquidar]
effect on AMPB uptake by BCECs [2, 8]: no significant effect
